Values after ≈ are worked out from the molar mass of the structure shown.
Key:
[1] = test system: recombinant guanylate cyclase reporter cell line; test: Effect on a recombinant guanylate cyclase reporter cell line; format: cell-based; conditions: minimum effective concentration; in some cases means of individual determinations; read-out: MEC
Description: B-2. Effect on a Recombinant Guanylate Cyclase Reporter Cell Line
The cellular activity of the compounds of the invention is determined using a recombinant guanylate cyclase reporter cell line, as described in F. Wunder et al., Anal. Biochem. 339, 104-112 (2005). Representative values (MEC=minimum effective concentration) for the compounds of the invention are shown in the table below (Table 1; in some cases as means of individual determinations): […]

[2] = biological target: T1, human phosphodiesterase 5 (PDE 5) (Homo sapiens, UniProt O76074); test: Inhibition of human phosphodiesterase 5 (PDE 5); format: biochemical; conditions: PDE 5 preparation from human platelets; in some cases means of individual determinations
T1 construct: PDE 5 preparations are obtained from human platelets by disruption; from tissue; host or cells: human platelets
Description: B-3. Inhibition of human phosphodiesterase 5 (PDE 5)
PDE 5 preparations are obtained from human platelets by disruption (Microfluidizer®, 800 bar, 3 passes), followed by centrifugation (75 000 g, 60 min, 4° C.) and ion exchange chromatography of the supernatant on a Mono Q 10/10 column (linear sodium chloride gradient, elution with a 0.2-0.3M solution of sodium chloride in buffer (20 mM Hepes pH 7.2, 2 mM magnesium chloride). Fractions having PDE 5 activity are combined (PDE 5 preparation) and stored at −80° C.
To determine their in vitro action on human PDE 5, the test substances are dissolved in 100% DMSO and serially diluted. Typically, dilution series (1:3) from 200 μM to 0.091 μM are prepared (resulting final concentrations in the test: 4 μM to 0.0018 μM). In each case 2 μl of the diluted substance solutions are placed into the wells of microtitre plates (Isoplate-96/200W; Perkin Elmer). Subsequently, 50 μl of a dilution of the above-described PDE 5 preparation are added. The dilution of the PDE 5 preparation is chosen such that during the later incubation less than 70% of the substrate are converted (typical dilution: 1:100; dilution buffer: 50 mM tris/hydrochloric acid pH 7.5, 8.3 mM magnesium chloride, 1.7 mM EDTA, 0.2% BSA). The substrate, [8-^3H] cyclic guanosine-3′,5′-monophosphate (1 μCi/μl; Perkin Elmer), is diluted 1:2000 with assay buffer (50 mM tris/hydrochloric acid pH 7.5, 8.3 mM magnesium chloride, 1.7 mM EDTA) to a concentration of 0.0005 μμCi/μl. By addition of 50 μl (0.025 μCi) of the diluted substrate, the enzyme reaction is finally started. The test mixtures are incubated at room temperature for 60 min and the reaction is stopped by adding 25 μl of a suspension of 18 mg/ml yttrium scintillation proximity beads in water (phosphodiesterase beads for SPA assays, RPNQ 0150, Perkin Elmer). The microtitre plates are sealed with a film and left to stand at room temperature for 60 min. Subsequently, the plates are analysed for 30 s per well in a Microbeta scintillation counter (Perkin Elmer). IC50 values are determined using the graphic plot of the substance concentration against percentage PDE 5 inhibition.

[3] = Solubility of substances in buffer pH 6.5; format: physicochemical; conditions: aqueous buffer, kinetic from dmso stock, PBS buffer pH 6.5, room temperature
Description: B-10. Determination of the Solubility of Substances in Buffer pH 6.5
40 μl of DMSO are added to 2 mg of a test substance [50 g/l]. 10 μl of this solution are removed and introduced into 990 μl of PBS buffer pH 6.5 (c=500 μg/ml). This solution/suspension is shaken at room temperature for 24 h. After 30 min of ultracentrifugation at 114 000 g, the supernatant is removed, diluted with ACN/water 8:2 and analyzed by LC-MSMS.
For calibration, likewise 10 pi are removed from the DMSO stock solution and introduced into 823 μl of DMSO (c=600 μg/ml). Quantification takes place using a five-point calibration curve.

| Structure (SMILES) | IC50 [2] | solubility at 24 h [3] | minimal effective concentration [1] |
| --- | --- | --- | --- |
| Cc1nc2c(cc1F)c(-c1nc(NCC(N)(CF)CF)c3c(n1)NC(=O)C3(C)C)nn2Cc1cccc(F)c1F [Example 1, 4-{[2-Amino-3-fluoro-2-(fluoromethyl)propyl]amino}-2[1-(2,3-difluorobenzyl)-5-fluoro-6-methyl-1H-pyrazolo[3,4-b]pyridin-3-yl]-5,5-dimethyl-5,7-dihydro-6H-pyrrolo[2,3-d]pyrimidin-6-one] | 52 nM | 7.6 µg/mL (≈ 13.6 µM) | 0.3 µM |
| Cc1nc2c(cc1F)c(-c1nc(NCC(N)(CF)CF)c3c(n1)NC(=O)C3(C)C)nn2Cc1ccccc1F [Example 2, 4-{[2-Amino-3-fluoro-2-(fluoromethyl)propyl]amino}-2-[5-fluoro-1-(2-fluorobenzyl)-6-methyl-1H-pyrazolo[3,4-b]pyridin-3-yl]-5,5-dimethyl-5,7-dihydro-6H-pyrrolo[2,3-d]pyrimidin-6-one] | 160 nM | 5.1 µg/mL (≈ 9.4 µM) | 0.1 µM |
| CC1(C)C(=O)Nc2nc(-c3nn(Cc4ncccc4F)c4ncc(F)cc34)nc(NCC(N)(CF)CF)c21 [Example 5, 4-{[2-Amino-3-fluoro-2-(fluoromethyl)propyl]amino}-2-{5-fluoro-1-[(3-fluoropyridin-2-yl)methyl]-1H-pyrazolo[3,4-b]pyridin-3-yl}-5,5-dimethyl-5,7-dihydro-6H-pyrrolo[2,3-d]pyrimidin-6-one] | 70 nM | 278 µg/mL (≈ 526 µM) | 1 µM |

Further compounds by falling IC50 [2], results first:

| IC50 [2] | solubility at 24 h [3] | Structure (SMILES) | minimal effective concentration [1] |
| --- | --- | --- | --- |
| 194 nM | – | Cc1nc2c(cc1F)c(-c1nc(NCC(N)(CF)CF)c3c(n1)NC(=O)C3(C)C)nn2Cc1c(F)ccc(F)c1F [Example 3, 4-{[2-Amino-3-fluoro-2-(fluoromethyl)propyl]amino}-2-[5-fluoro-6-methyl-1-(2,3,6-trifluorobenzyl)-1H-pyrazolo[3,4-b]pyridin-3-yl]-5,5-dimethyl-5,7-dihydro-6H-pyrrolo[2,3-d]pyrimidin-6-one] | 0.03 µM |
| 180 nM | 260 µg/mL (≈ 479 µM) | Cc1nc2c(cc1F)c(-c1nc(NCC(N)(CF)CF)c3c(n1)NC(=O)C3(C)C)nn2Cc1ncccc1F [Example 4, 4-{[2-Amino-3-fluoro-2-(fluoromethyl)propyl]amino}-2-{5-fluoro-1-[(3-fluoropyridin-2-yl)methyl]-6-methyl-1H-pyrazolo[3,4-b]pyridin-3-yl}-5,5-dimethyl-5,7-dihydro-6H-pyrrolo[2,3-d]pyrimidin-6-one] | 1 µM |

— US20170240566A1, “AMINO-SUBSTITUTED ANNULATED PYRIMIDINES AND USE THEREOF” (Bayer Pharma Aktiengesellschaft, priority 2014, published 2017)
